Changes are numbered by the printed parent chain.
Assays:
[1] = no reference given; cited from earlier work
[2] = molecular target: T1, TTD-PHD S298D mutant vs. H3K9me3 peptide (Homo sapiens, UniProt Q96T88, S298D); experiment: TR-FRET assay: TTD-PHD S298D mutant binding to H3K9me3 peptide; format: biochemical; details: 2.5 mM 2,4-lutidine
T1 construct: made in house; host or cells: E. coli (host printed for TTD-PHD in general: Rosetta (DE3))
T1 sequence (Q96T88 123-366 S298D): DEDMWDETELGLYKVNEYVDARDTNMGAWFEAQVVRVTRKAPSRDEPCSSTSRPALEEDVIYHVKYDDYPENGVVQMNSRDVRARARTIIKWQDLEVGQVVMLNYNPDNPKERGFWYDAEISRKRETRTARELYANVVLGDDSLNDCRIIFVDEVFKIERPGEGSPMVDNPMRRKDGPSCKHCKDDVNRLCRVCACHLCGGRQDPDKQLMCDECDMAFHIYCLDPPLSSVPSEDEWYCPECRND
Procedure: The fragment screen was carried out on low volume 384-well white plates (Corning 4512) and the assay was performed at room temperature. […] After 1 h of incubation, the fluorescent signals at 665 nm and 620 nm of each plate were measured by the Tecan Infinite M1000 plate reader (excitation 340 nm, 60 μs lag time, and 500 μs integration time) and the TR-FRET signal was calculated by the ratio of 665 nm/620 nm fluorescent signal. For the fragment screen, on seven of the library plates there were 32-wells of DMSO control, while there were 8-wells of DMSO control in the last plate. […] The only difference was that the final concentration of […] assay, while the final concentration of His6-UHRF1-FL was 200 nM and biotin-H3K9me3 peptide was 100 nM for the His6-UHRF1-FL TR-FRET assay. The buffer pH was 7.5 for the His6-TTD-PHD and His6-UHRF1-FL assays.

[3] = molecular target: T2, His6-TTD-PHD (Homo sapiens, UniProt Q96T88); experiment: Intrinsic tryptophan fluorescence of His6-TTD-PHD; format: binding; details: 3.2 µM protein
T2 construct: made in house; host or cells: Rosetta (DE3) E. coli, pMCSG7
T2 sequence (Q96T88 123-366): T1 sequence (Q96T88 123-366 S298D) with D176S
Procedure: The untagged TTD was diluted to 30 µM by buffer (50 mM sodium phosphate, pH 7.5, 150 mM NaCl) with or without 60 µM of H3K9me3 peptide (1–20) (Anaspec). 10 µL of diluted TTD was added into 384-well flat bottom black plate (Greiner, Cat# 781086). […] The final concentration of TTD was 15 µM and the H3K9me3 peptide (if included) was 30 µM. The experiment was performed at room temperature. […] After compound addition, the intrinsic tryptophan fluorescence was analyzed by the Tecan Infinite M1000 plate reader (excitation 280 nm, emission 334 nm). […] Tryptophan fluorescence monitors 2 , 4 - lutidine binding to His 6 - TTD, His 6 - TTD - PHD, and C - FLAG - UHRF 1 - FL . 2 , 4 - Lutidine dose - dependently quenched the tryptophan fluorescence of TTD (purple circle), while only started to show quenching effect against His 6 - TTD - PHD at mM concentration (blue diamond) . 2 , 4 - Lutidine had no effect on the fluorescence of C - FLAG - UHRF 1 - FL and the control USP 7 - UBL 1 / 2 protein . n= 3 for each data point . (Note : the standard deviation error bars are included, but the error values are often extremely small in this assay) . […]

[4] = molecular target: T3, His6-TTD (UHRF1 tandem Tudor domain) vs. H3K9me3 peptide (Homo sapiens, UniProt Q96T88); experiment: TR-FRET assay: His6-TTD interaction with H3K9me3 peptide; format: biochemical; details: protein treated with PKA and ATP 1 h at 30 °C
T3 construct: Using the isolated His6-TTD (aa 123–283) we performed a thermal shift assay; made in house; host or cells: Rosetta (DE3) E. coli, pMCSG7
T3 sequence (Q96T88 123-283): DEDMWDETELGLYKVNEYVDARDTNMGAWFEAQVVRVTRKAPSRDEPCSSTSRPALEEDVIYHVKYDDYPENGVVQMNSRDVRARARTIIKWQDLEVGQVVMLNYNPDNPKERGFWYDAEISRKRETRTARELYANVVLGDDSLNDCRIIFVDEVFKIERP
Procedure: Finally, the fragment library was screened using a TR-FRET assay to find inhibitors that block the interaction of His6-TTD with H3K9me3 peptide. In this assay, an anti-His6-antibody labeled with Tb cryptate binds to His6-TTD while a streptavidin-d2 acceptor binds to a biotinylated histone H3K9me3 peptide. The binding between His6-TTD and H3K9me3 peptide was measured by the ratio of 665 nm fluorescence (from the d2 acceptor) to 620 nm fluorescence (from the Tb cryptate donor) (Fig. 1D).
The fragment screen was carried out on low volume 384-well white plates (Corning 4512) and the assay was performed at room temperature. […] After 1 h of incubation, the fluorescent signals at 665 nm and 620 nm of each plate were measured by the Tecan Infinite M1000 plate reader (excitation 340 nm, 60 µs lag time, and 500 µs integration time) and the TR-FRET signal was calculated by the ratio of 665 nm/620 nm fluorescent signal. For the fragment screen, on seven of the library plates there were 32-wells of DMSO control, while there were 8-wells of DMSO control in the last plate. […] The only difference was that the final concentration of His6-TTD-PHD was 200 nM, biotin-H3K9me3 peptide was 200 nM for the His6-TTD-PHD TR-FRET assay, while the final concentration of His6-UHRF1-FL was 200 nM and biotin-H3K9me3 peptide was 100 nM for the His6-UHRF1-FL TR-FRET assay. The buffer pH was 7.5 for the His6-TTD-PHD and His6-UHRF1-FL assays.

[5] = molecular target: His-USP7-UBL1/2 (control protein) (Homo sapiens, UniProt Q93009); experiment: Intrinsic tryptophan fluorescence of control protein; format: binding; details: 3.2 µM protein
Chain of His-USP7-UBL1/2 (control protein) (Q93009 560-776 limits assumed): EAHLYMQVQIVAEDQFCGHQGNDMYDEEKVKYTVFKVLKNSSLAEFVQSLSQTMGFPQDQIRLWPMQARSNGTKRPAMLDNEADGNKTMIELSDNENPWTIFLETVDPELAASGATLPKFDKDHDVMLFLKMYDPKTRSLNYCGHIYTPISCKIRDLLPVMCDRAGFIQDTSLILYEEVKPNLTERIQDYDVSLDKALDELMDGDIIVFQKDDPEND

Cc1ccnc(C)c1 [2,4-lutidine]
pKa [1]: 6.99
inhibition of binding to H3K9me3 peptide [2]: 44.5%
quenching of His6-TTD-PHD tryptophan fluorescence (in words) [3]: only at close to mM concentrations
effect of PKA treatment of His6-TTD on inhibition of H3K9me3 peptide binding (in words) [4]: no effect
effect on tryptophan fluorescence of control protein (in words) [5]: did not inhibit

Reference: article PMC7806715, “Discovery of small molecules targeting the tandem tudor domain of the epigenetic factor UHRF1 using fragment-based ligand discovery” (Scientific Reports, 2021)
